The results in this text go back to patent US9919941B2, “Multiple uses of amine salts for industrial water treatment” (AMSA, Inc., priority 2012, dated 2018).

Test [1] can be described thus: copper corrosion inhibition, ASTM G31-72 coupon weight loss. The protocol:
(§1) Corrosion inhibition studies of various compounds of Formula (I) were conducted according to ASTM method G31-72 (2004). The following is the general test method.
(§2) Aqueous solutions of the test compound (900 mL) were prepared with city water for mild steel corrosion studies or a dilute sea salt solution (1000 ppm in deionized water) for copper corrosion studies. The solutions were magnetically stirred at a constant rate in a 1 L beaker and three coupons of either mild steel or copper were suspended in each beaker. After 5 days (steel) or 7 days (copper), the coupons were removed and cleaned according to ASTM method G1-03. Average weight loss was determined for each set of three coupons and then converted to corrosion rate in terms of mils per year (mpy).
The first test of copper corrosion inhibition compared Compound A with Compound 13 (from Table 1), 2-hydroxypropane-1,2,3-tricarboxylic acid, and a commercial inhibitor, Na-TAI.

The subject of test [2] is planktonic microbial population of cooling tower water. The experiment in a line: time-kill biocidal efficacy, hybrid planktonic-sessile procedure: planktonic population. The test is classed as cell-based, natural mixed aerobic microbial population. The note with it: for Planktonic, 20-24 h, % of Control / Planktonic, 48-54 h, % of Control / Planktonic, 120 h, % of Control / Planktonic CFU/10 mL, 20-24 h / Planktonic CFU/10 mL, 48-54 h / Planktonic CFU/10 mL, 120 h / Planktonic CFU/10 mL, Total / Planktonic, Total, % of Control / reduction in the total planktonic population / activity at 10 ppm: 10 ppm Compound B, others equimolar; for Planktonic, 20-24 h, % of Control / Planktonic, 48-54 h, % of Control / Planktonic, 120 h, % of Control / Planktonic CFU/10 mL, 20-24 h / Planktonic CFU/10 mL, 48-54 h / Planktonic CFU/10 mL, 120 h / Planktonic CFU/10 mL, Total / Planktonic, Total, % of Control / activity at 10 ppm: exposure 110 minutes; for Planktonic CFU/10 mL, 20-24 h: fast growing population; for Planktonic CFU/10 mL, 48-54 h: moderate growth rate population; for Planktonic CFU/10 mL, 120 h: slow growth rate population; for reduction in the total planktonic population: 110 minutes. The protocol: An experiment was conducted to assess biocidal effectiveness of Compounds A and B and their respective Compounds 13 and 1 anion analogs. Time-kill tests were conducted using a hybrid planktonic-sessile procedure which allowed assessment of biocidal effectiveness against both planktonic and sessile microbial populations. A natural mixed aerobic microbial population in samples collected from an operating cooling tower was used as inoculum for the test. Biocide test concentration for Compound B was 10 ppm. All other products were tested at the equivalent molar concentration. Biocide exposure was 110 minutes. The following procedure was used which generally followed the biocidal testing method of Walter, R. W. and Cooke, L. […] A New Multifunctional Biocide Which Enhances Corrosion Inhibition,” NACE Paper 410, 1997. A water sample was collected from a cooling tower that contained a natural mixed population of microorganisms that grew at different rates when plated on Petrifilm. The populations of cells that grew on Petrifilm in 20-24 hours, 48-54 hours and at 120 hours were treated as separate populations. […] The washers were allowed seven days to develop a biofilm on their surface. Prior to chemical treatment, 10 mL aliquots of the CTW were removed from the beaker and placed into individual exposure test tubes along with a single washer. Test compounds were then added to the individual tubes at equimolar concentrations. All exposure tests including untreated controls were conducted in triplicate (i.e., three washers in separate exposure tubes). After addition of the test compound, the tube was briefly mixed by mild vortexing and again occasionally throughout the exposure time. Determination of residual viable cell population in the bulk water: 1 mL of the water from the exposure tube was plated on petrifilm. A second 1 ml was added to 9 mL tube of Letheen broth and mixed by shaking 10 times. A 1 mL aliquot was plated on petrifilm, a second 1 mL aliquot was added to a 9 ml tube of Butterfields Broth and again shaken 10 times. This serial sequence of plating the dilution and subsequent 1/10 dilution was repeated through 10^-4 to 10^-5 dilution. Determination of colony forming units (CFU) at different incubation times: After plating the various solutions on Petrifilm, the films were incubated at 36° C. for the first 24 hours. At 20 hours the […] read and CFU were recorded. This population was defined as a fast growing population. The […] then incubated for additional time either at 36° C. or room temperature and read at 54 hours. This second population is in addition to the fast growth rate population and was defined as moderate growth rate organisms. Incubation was continued and the […] again after 120 hours. This third population was also treated as separate from the fast and moderate growth rate populations and is referred to as the slow growth rate population. As noted above, each compound was evaluated in triplicate with three separate washers and the results were averaged. Average CFU/mL values were used to calculate total planktonic test population (CFU/10 mL) and total sessile test population (CFU/washer) in each test system.

Test [3] can be described thus: mild steel corrosion inhibition, ASTM G31-72 coupon weight loss. The protocol:
as §1, §2
These tests compare the corrosion inhibition of compounds of Formula (I), namely from Table 1, in the first set of comparisons, Compound A with Compound 13, and Compound B with Compound 1, and with 2-hydroxypropane-1,2,3-tricarboxylic acid. Thus five samples were tested relative to a blank and a standard, (1-hydroxyethan-1,1-diyl)bis(phosphonic acid), after 5 days at 26 μM concentrations. […] Concentrations were 26 μM.
Additional mild steel corrosion tests were performed at 130 μM concentration of compounds of Formula (I) and comparative compounds for 5 days. The next test compared the corrosion inhibition of Compound 8 with 2,3-dihydroxybutanedioic acid and Compound B, and Compound 4 with (1-hydroxyethan-1,1-diyl)bis(phosphonic acid) and Compound B. Also included was Compound 1 for reference. Concentrations in this set were 130 μM.

Setting [4] is: 130 μM, Table 5 (blank 12.5 mpy).
Setting [5] is: 5 days, 130 μM, Table 4 (blank 24 mpy).

Structures are written as SMILES. Where “and” joins values, the source holds several entries; their conditions need not be identical. Equal entries are not always repeated. Where two headings read alike, the source gives them in different places.

In the case of `CCCCCCCCCCOCCCN.O=C(O)CC(O)(CC(=O)O)C(=O)O` [Compound 1, 2-hydroxypropane-1,2,3-tricarboxylic acid salt of aminopropyloxydecane], the “Inhibition relative to blank” value in test [1] (42 μM, Table 7) is reported as 54%. Moreover, in test [2] (20-24 h incubation), the “Planktonic, 20-24 h, % of Control” value was 97.9% and the “Planktonic CFU/10 mL, 20-24 h” value is recorded as 970 CFU/10 mL. In addition, in test [2] (48-54 h incubation), the “Planktonic, 48-54 h, % of Control” value is 90.3% and the “Planktonic CFU/10 mL, 48-54 h” value is 340,000 CFU/10 mL. For the same compound, in test [2] (120 h incubation), the “Planktonic, 120 h, % of Control” value was determined as 28.4% and the “Planktonic CFU/10 mL, 120 h” value was 2,280,000 CFU/10 mL. The “biocidal effectiveness compared with parent salt (in words)” value in test [2] (planktonic and sessile populations, same experimental conditions and molar concentration) is reported as “very similar (within experimental error) to those obtained with Compound B”. Besides, in test [2] (total population), the “Planktonic CFU/10 mL, Total” value is listed as 2,620,000 CFU/10 mL and the “Planktonic, Total, % of Control” value was 31.1%. In test [3] (setting [4]), the “Inhibition relative to blank” value was 87%. The “Inhibition relative to blank” value in test [3] (5 days, 26 μM, Table 3) was determined as 60%. In addition, in test [3] (setting [5]), the “Inhibition relative to blank” value stood at 88%.
Take `CCCCCCCCCCSCCN.Cl` [Compound A, 2-(decylthio)ethanamine hydrochloride]: the “Inhibition relative to blank” value is 41% in test [1] (7 days, 17 μM, Table 6); 3.3% and 3% in test [3] (5 days, 26 μM, Table 3, hydrochloride). In addition, the “reduction in the total planktonic population” value in test [2] came out at 97%. The activity at 10 ppm in test [2] (20-24 h incubation, read-out: Planktonic, 20-24 h, % of Control) amounted to 94.9%; in test [2] (48-54 h incubation, read-out: Planktonic, 48-54 h, % of Control), 3.6%; in test [2] (110 min, total population, read-out: Planktonic, Total, % of Control), 2.9%; in test [2] (120 h incubation, read-out: Planktonic, 120 h, % of Control) it was 2.8%. Further, the “Planktonic CFU/10 mL, 20-24 h” value in test [2] (20-24 h incubation) stood at 940 CFU/10 mL. The “Planktonic CFU/10 mL, 48-54 h” value in test [2] (48-54 h incubation) is 13,500 CFU/10 mL. Further, in test [2] (120 h incubation), the “Planktonic CFU/10 mL, 120 h” value is listed as 227,000 CFU/10 mL. For the same compound, the “Planktonic CFU/10 mL, Total” value in test [2] (total population) was 241,000 CFU/10 mL.
`CC(=O)O.CCCCCCCCCCOCCCN` [Compound B, ethanoic acid salt of aminopropyloxydecane]: the “Inhibition relative to blank” value in test [1] (42 μM, Table 7) is on record as 32%. Also, the “reduction in the total planktonic population” value in test [2] stood at 63%. In addition, in test [2] (20-24 h incubation), the “Planktonic, 20-24 h, % of Control” value was found to be 81.7% and the “Planktonic CFU/10 mL, 20-24 h” value worked out at 810 CFU/10 mL. In test [2] (48-54 h incubation), the “Planktonic, 48-54 h, % of Control” value is given as 85.0% and the “Planktonic CFU/10 mL, 48-54 h” value is recorded as 320,000 CFU/10 mL. In addition, in test [2] (120 h incubation), the “Planktonic, 120 h, % of Control” value was determined as 34.6% and the “Planktonic CFU/10 mL, 120 h” value was 2,780,000 CFU/10 mL. For the same compound, in test [2] (total population), the “Planktonic CFU/10 mL, Total” value is on record as 3,100,000 CFU/10 mL and the “Planktonic, Total, % of Control” value was determined as 36.8%. In addition, the “Inhibition relative to blank” value in test [3] (setting [4]) is −1%. Besides, the “Inhibition relative to blank” value in test [3] (5 days, 26 μM, Table 3, 26 µM) is 1.6% and 2%. The “Inhibition relative to blank” value in test [3] (setting [5]) is recorded as −1%.
